Measured values from US9683014B2, “Dipeptide mimetics of NGF and BDNF neurotrophins” (UCHREZHDENIE ROSSIISKOI AKADEMII MEDITSYNSKIKH NAUK …, priority 2009, dated 2017).
Several values for one entry are separate records, joined by “and”; a condition that tells them apart may be missing. Equal entries are not always repeated. Where two headings read alike, the source gives them in different places. Marks after values point to notes of the source that are not given here.

How the values were obtained:
HT-22 cells = assay: Oxidative stress (H2O2) model in cultured HT-22 cells (MTT test); format: cell-based, mouse
Protocol: To induce an oxidative stress, the cells were placed in a growth medium containing 5% FBS, then a freshly prepared H2O2 solution was added to a final concentration of 1.5 mM and incubated for 30 min at 37° C. and 5% CO2. Thereafter, the medium was replaced with a new one and the cells were cultured for 4 h under the same conditions.
The determination of cell viability was carried out by MTT test. […] At the end of an experiment the growth medium was replaced with an MTT solution (0.5 mg/ml) and incubated for 30 min at 37° C. and 5% CO2. The MTT solution was then removed from the wells and DMSO was added to dissolve the formazan precipitate. Then the optical density was measured using a Multiscan (Thermo) spectrophotometer at a wavelength of 600 nm.

Hsp70 = assay: Western blot of Hsp70 in HT-22 cells; format: cell-based, mouse; conditions: 24 h after addition; GK-1, GK-2 10^−8 and 10^−5 M; GK-3 10^−6 M; GK-4 10^−7 M; GK-5 10^−6 M
Protocol: (§1) The amount of Hsp70, Hsp32 and pTrkA was determined in the cytoplasmic fraction of HT-22 neuronal cells. For heat shock proteins, a test compound was added to the culture 24 hours prior to testing, before the cells were washed off the culture liquid with PBS. For pTrkA, a test compound was added to the culture immediately prior to the cell lysis just for 1 or 2 min, before the cells were washed off the culture liquid with PBS. Then the cells were mixed with the lysis buffer (50 mM Tris-HCl, 5 mM EDTA, 1 mM DTT, 1% Triton X-100, pH 7.5) at 4° C. and lysed for 5 min, then scraped off, transferred into a 1.5 ml centrifuge tube and centrifuged at 13000 rpm and 4° C. for 10 min. The supernatant containing cytosolic proteins was assayed by electrophoresis and immunoblotting. Proteins were separated on a 10% polyacrylamide gel (PAAG) and transferred from PAAG onto a PVDF membrane by electroelution for 45 min. Western blots were pre-incubated for 1 h in a TBST solution containing 1% Tween-20 and supplemented with 5% (w/v) skim milk. Western blots were then incubated with the primary polyclonal anti-Hsp32 antibody diluted 1:1000 or primary monoclonal anti-Hsp70 antibody diluted 1:1000 or primary monoclonal anti-phosphorylated tyrosine kinase A antibody diluted 1:1000 for 1 hour. Then the blots were washed and incubated with a secondary antibody conjugated to horseradish peroxidase (diluted 1:2000) for 1 hour. The detection of Hsp70, Hsp32 and pTrkA was carried out by the ECL reaction on a Kodak film.

Hsp32 = assay: Western blot of Hsp32 in HT-22 cells; format: cell-based, mouse; conditions: 24 h after addition; GK-1, GK-2 10^−8 and 10^−5 M; GK-3 10^−6 M; GK-4 10^−7 M; GK-5 10^−6 M
Protocol: as §1

tyrosine kinase A (TrkA) = molecular target: T1, tyrosine kinase A (TrkA) (Mus musculus, UniProt Q3UFB7); assay: Tyrosine kinase A phosphorylation in HT-22 cells (Western blot); format: cell-based; conditions: first minute of exposure
T1 construct: phosphorylation of tyrosine kinase A in cultured hippocampal neuronal cell line HT22; endogenous in cells; host or cells: HT-22 hippocampal neuronal cell line
Protocol: as §1

rats = conditions: 1.0 mg/kg i.p. 24 h prior to apomorphine (pretreatment); FIG. 2.10
Protocol: The control group was treated with distilled water according to the same regimen.

Wistar rats = conditions: 1 mg/kg i.p. x7
Protocol: The experiments were carried out on male Wistar rats weighing 280-400 g. Animals were anesthetized and scalped followed by being placed in the stereotaxis device. A skewed incision was made in the skull 1 mm wide: the start point for incision was at the level of bregma (AP=0.0) and 2 mm lateral of it (L=±2); the end point for incision was 2 mm caudal of bregma and 1 mm lateral of it (AP=2.0, L=±1). Following the sawing of the skull bone, the dura mater was incised carefully in the sawcut area. A sterile curved needle was inserted into the incision to a depth of 6.2 mm from the bone surface (DV=−6.2). By the simultaneous use of two screws in the stereotaxis device, the needle was moved slowly almost to the end point of the skewed incision. Then the needle was lifted slowly from the incision. The procedure was repeated twice on each hemisphere. Sham operation was similar to the transection procedure except that the needle was inserted to a depth of 3 mm from the bone surface (DV=−3.0). The first injection of the test compound (1 mg/kg i.p.) in the treatment group or of distilled water in the control group was made 2 hours after the transection. Further injections were made every 48 hours. In the course of the experiment each animal received 7 injections of the test compound.
To detect behavioral abnormalities induced by the transection of the septo-hippocampal pathway, the open-field test was used. The choice of this test was based on the following studies: 1) Lamprea M. R., Cardenas F. P., Silveira R., Walsh T. J., Morato S. Effects of septal cholinergic lesion on rat exploratory behavior in an open-field. Braz. J. Med. Biol. Res. 2003, 36(2), 233-238; 2) Cassel J. S., Kelche C., Peterson G. M., Ballough G. P., Goepp I., Will B. Graft-induced behavioral recovery from subcallosal septohippocampal damage in rats depends on maturity stage of donor tissue. Neuroscience, 1991, 45(3), 571-586. Animals were tested in the open-field device 48 hours after the last injection of the test compound (at 14 days after surgery). Differences between experimental groups were assessed according to the Wilcoxon paired test. The data are expressed as the median values for the respective samples.

[1] = tested on: rats with ischemic cerebral infarction; conditions: 1 mg/kg i.p. x3

T1 sequence (Q3UFB7 34-799): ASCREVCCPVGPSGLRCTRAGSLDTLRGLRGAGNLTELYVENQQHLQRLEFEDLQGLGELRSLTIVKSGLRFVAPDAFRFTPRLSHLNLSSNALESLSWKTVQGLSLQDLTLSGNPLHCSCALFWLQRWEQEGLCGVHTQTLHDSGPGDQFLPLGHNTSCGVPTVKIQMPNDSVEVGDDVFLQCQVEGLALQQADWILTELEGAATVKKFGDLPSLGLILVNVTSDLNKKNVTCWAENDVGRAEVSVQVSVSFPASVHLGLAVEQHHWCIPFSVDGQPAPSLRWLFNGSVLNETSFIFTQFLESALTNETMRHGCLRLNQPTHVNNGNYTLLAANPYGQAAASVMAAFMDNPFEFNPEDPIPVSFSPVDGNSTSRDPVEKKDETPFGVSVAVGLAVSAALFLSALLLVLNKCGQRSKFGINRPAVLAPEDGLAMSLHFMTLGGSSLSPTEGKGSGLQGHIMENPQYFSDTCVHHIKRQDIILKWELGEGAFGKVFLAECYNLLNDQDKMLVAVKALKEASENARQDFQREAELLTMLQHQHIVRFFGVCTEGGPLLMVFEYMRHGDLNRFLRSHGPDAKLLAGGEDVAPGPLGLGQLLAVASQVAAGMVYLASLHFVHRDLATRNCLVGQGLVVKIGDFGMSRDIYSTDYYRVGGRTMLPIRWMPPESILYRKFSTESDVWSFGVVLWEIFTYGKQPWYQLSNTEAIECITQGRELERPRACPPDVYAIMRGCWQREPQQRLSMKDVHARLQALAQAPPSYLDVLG

`NCCCC[C@H](NC(=O)[C@H](CCC(=O)O)NC(=O)CCC(=O)O)C(=O)NCCCCCCNC(=O)[C@H](CCCCN)NC(=O)[C@H](CCC(=O)O)NC(=O)CCC(=O)O` [GK-2, bis-(N-monosuccinyl-glutamyl-lysine) hexamethylenediamide] was tested, and the “Optical density (MTT)” value (HT-22 cells) was 0.324 ± 0.070^ and 0.345 ± 0.065^, the “effect when added immediately after the oxidative stress exposure” value (HT-22 cells; 10^−8 M to 10^−5 M) was “therapeutic effect” and the “Optical density (MTT)” value (HT-22 cells; Table 1.4, 10^−5M, 24 h before H2O2, control 0.427 ± 0.071, H2O2 0.350 ± 0.052) was 0.422 ± 0.063^. The “Optical density (MTT)” value (HT-22 cells; Table 1.4, 10^−8M, 24 h before H2O2, control 0.427 ± 0.071, H2O2 0.350 ± 0.052) was 0.501 ± 0.109^, the “Optical density (MTT)” value (HT-22 cells; Table 1.4, 10^−9M, 24 h before H2O2, control 0.427 ± 0.071, H2O2 0.350 ± 0.052) was 0.516 ± 0.068^ and the “neuronal survival under oxidative stress” value (HT-22 cells; added 24 hours prior to the stress exposure, 10^−8 M to 10^−5 M) was “improved the neuronal survival”. For the same molecule, the “amount of Hsp70” value (Hsp70) was “increase”, the “amount of Hsp32” value (Hsp32) was “increase” and the “level of phosphorylated tyrosine kinase A” value (tyrosine kinase A (TrkA)) was “increased”. For the same molecule, the “intensity of apomorphine-induced oral stereotypy” value (rats) was “enhanced the intensity”, the “horizontal motor activity in the open-field test (median)” value (“horizontal motor activity” below) (Wistar rats; 1st minute, 14 days after surgery, transection 11.5, sham 21) was 12.5 and the “horizontal motor activity” value (Wistar rats; 2nd minute, transection 12, sham 14) was 11.5. For the same molecule, the “horizontal motor activity” value (Wistar rats; 3rd minute, transection 19, sham 9.5) was 15.5, the “horizontal motor activity” value (Wistar rats; 4th minute, transection 11.5, sham 9) was 6.5* and the limb-placing test score ([1]; day 4 post-ischemia, ischemic rats 3.00±0.38, intact 14) was 5.90±0.62. It also gave a limb-placing test score ([1]; day 7 post-ischemia, ischemic rats 4.46±0.40, intact 14) of 7.67±0.75.
